Results reported in ChEMBL document CHEMBL2069259, “Preclinical strategy to reduce clinical hepatotoxicity using in vitro bioactivation data for >200 compounds” (Chem Res Toxicol, 2012).

Tests used:
[1] = tested on: Liver microsomes; assay: Metabolic stability in human liver microsomes assessed as high signal/noise ratio (S/N of >100) by measuring GSH adduct formation at 100 uM after 90 mins by HPLC-MS analysis; conditions: 1.5 h
[2] = target: CYP3A4 (Homo sapiens, UniProt P08684); assay: Inhibition of human CYP3A4 assessed as ratio of IC50 in absence of NADPH to IC50 for presence of NADPH using diethoxyfluorescein as substrate after 30 mins
[3] = tested on: Liver microsomes; conditions: human, 1.5 h, 100 µM
[4] = tested on: Liver microsomes; assay: Metabolic stability in human liver microsomes assessed as GSH adduct formation at 100 uM after 90 mins by HPLC-MS analysis; conditions: 1.5 h
[5] = target: CYP2C19 (Homo sapiens, UniProt P33261); assay: Inhibition of human CYP2C19 assessed as ratio of IC50 in absence of NADPH to IC50 for presence of NADPH using 3-butyryl-7-methoxycoumarin as substrate after 30 mins; conditions: probe 3-butyryl-7-methoxycoumarin
Chain of CYP2C19 (P33261 whole entry): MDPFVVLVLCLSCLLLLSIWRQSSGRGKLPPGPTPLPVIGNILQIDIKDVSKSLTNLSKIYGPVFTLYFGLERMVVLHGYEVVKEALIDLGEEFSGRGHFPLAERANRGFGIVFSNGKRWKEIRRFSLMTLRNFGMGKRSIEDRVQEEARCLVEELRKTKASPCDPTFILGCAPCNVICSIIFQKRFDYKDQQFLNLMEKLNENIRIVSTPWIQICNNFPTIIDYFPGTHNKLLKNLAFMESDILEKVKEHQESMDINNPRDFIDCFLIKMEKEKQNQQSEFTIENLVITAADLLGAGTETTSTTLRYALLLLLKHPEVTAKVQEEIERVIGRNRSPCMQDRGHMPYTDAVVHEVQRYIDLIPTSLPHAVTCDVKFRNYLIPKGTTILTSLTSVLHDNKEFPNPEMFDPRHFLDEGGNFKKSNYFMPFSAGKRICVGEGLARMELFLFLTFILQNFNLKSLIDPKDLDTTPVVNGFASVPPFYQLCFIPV

Chain of CYP3A4 (P08684 whole entry): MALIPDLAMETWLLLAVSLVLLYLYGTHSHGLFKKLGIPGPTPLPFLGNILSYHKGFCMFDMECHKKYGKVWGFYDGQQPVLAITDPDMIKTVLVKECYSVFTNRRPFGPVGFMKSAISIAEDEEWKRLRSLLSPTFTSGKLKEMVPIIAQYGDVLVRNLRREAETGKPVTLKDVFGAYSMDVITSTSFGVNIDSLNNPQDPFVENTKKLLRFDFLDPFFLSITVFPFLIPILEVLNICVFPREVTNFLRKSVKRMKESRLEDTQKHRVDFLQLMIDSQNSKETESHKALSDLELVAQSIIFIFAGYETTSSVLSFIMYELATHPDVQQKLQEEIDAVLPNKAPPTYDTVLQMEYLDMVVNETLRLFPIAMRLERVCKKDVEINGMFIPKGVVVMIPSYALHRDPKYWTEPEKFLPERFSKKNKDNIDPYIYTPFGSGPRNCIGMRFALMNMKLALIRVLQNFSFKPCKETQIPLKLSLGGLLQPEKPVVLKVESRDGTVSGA

SMILES	Stability [1]	Stability [4]	further results
CN(C)/N=N/c1[nH]cnc1C(N)=O [DACARBAZINE]	Unstable	–	–
C[C@]12CC[C@@H]3c4ccc(O)cc4CC[C@H]3[C@@H]1CC[C@@H]2O [ESTRADIOL]	Unstable	–	IC50 shift at 0.5 h ([2]; probe diethoxyfluorescein): < 2
NC(=O)N1c2ccccc2C=Cc2ccccc21 [CARBAMAZEPINE]	Unstable	–	–
CCC(C)(C)C(=O)O[C@H]1C[C@@H](C)C=C2C=C[C@H](C)[C@H](CC[C@@H]3C[C@@H](O)CC(=O)O3)[C@H]21 [SIMVASTATIN]	Unstable	–	–
NNc1nncc2ccccc12 [HYDRALAZINE]	–	–	Stability [3]: Unstable
CCc1ccc(CCOc2ccc(CC3SC(=O)NC3=O)cc2)nc1 (stereo not drawn) [PIOGLITAZONE]	–	–	Stability [3]: Unstable
CC(C)NNC(=O)c1ccncc1 [IPRONIAZID]	–	Stable	IC50 shift at 0.5 h ([2]; probe diethoxyfluorescein): > 5
Cn1cnc([N+](=O)[O-])c1Sc1ncnc2nc[nH]c12 [AZATHIOPRINE]	Unstable	–	–
C#CCN(C)[C@H](C)Cc1ccccc1 [SELEGILINE]	Unstable	–	–
Cc1ccnc2c1NC(=O)c1cccnc1N2C1CC1 [NEVIRAPINE]	–	Stable	IC50 shift at 0.5 h ([2]; probe diethoxyfluorescein): 2
CC(C)[C@H]1CC[C@H](C(=O)N[C@H](Cc2ccccc2)C(=O)O)CC1 [NATEGLINIDE]	–	–	Stability [3]: Unstable
CC(C(=O)O)c1ccc(N2CC=CC2)c(Cl)c1 (stereo not drawn) [PIRPROFEN]	–	–	Stability [3]: Unstable
CN/C(=N/CCSCc1nc[nH]c1C)NC#N [CIMETIDINE]	Unstable	–	–
O=C(O)[C@H]1/C(=C/CO)O[C@@H]2CC(=O)N21 [CLAVULANIC ACID]	Unstable	–	–
O=P1(N(CCCl)CCCl)NCCCO1 (stereo not drawn) [CYCLOPHOSPHAMIDE ANHYDROUS]	–	–	Stability [3]: Unstable
CN(CCOc1ccc(NS(C)(=O)=O)cc1)CCc1ccc(NS(C)(=O)=O)cc1 [DOFETILIDE]	–	–	Stability [3]: Unstable
COc1ncnc(NS(=O)(=O)c2ccc(N)cc2)c1OC [SULFADOXINE]	–	–	Stability [3]: Unstable
O=C(O)Cc1ccccc1Nc1c(Cl)cccc1Cl [DICLOFENAC]	–	–	Stability [3]: Unstable
CC1=C(CC(=O)O)c2cc(F)ccc2/C1=C\c1ccc([S+](C)[O-])cc1 (stereo not drawn)	–	–	Stability [3]: Unstable
CO/N=C(\C(=O)N[C@@H]1C(=O)N2C(C(=O)O)=C(CSc3nc(=O)c(=O)[nH]n3C)CS[C@H]12)c1csc(N)n1 [CEFTRIAXONE]	Unstable	–	–
CCCCC1C(=O)N(c2ccccc2)N(c2ccc(O)cc2)C1=O (stereo not drawn) [OXYPHENBUTAZONE ANHYDROUS]	Unstable	–	–
CC(=O)[C@@]1(O)CC[C@H]2[C@@H]3C=C(Cl)C4=CC(=O)[C@@H]5C[C@@H]5[C@]4(C)[C@H]3CC[C@@]21C [CYPROTERONE]	Unstable	–	–

SMILES	Stability [1]	Stability [4]	further results
CO[C@H]1C[C@H](O[C@H]2[C@H](C)[C@@H](O[C@@H]3O[C@H](C)C[C@H](N(C)C)[C@H]3OC(C)=O)[C@@H](C)C[C@@]3(CO3)C(=O)[C@H](C)[C@@H](OC(C)=O)[C@@H](C)[C@@H](C)OC(=O)[C@@H]2C)O[C@@H](C)[C@@H]1OC(C)=O [TROLEANDOMYCIN]	Unstable	–	–
COc1cc([C@@H]2c3cc4c(cc3[C@@H](O[C@@H]3O[C@@H]5CO[C@@H](C)O[C@H]5[C@H](O)[C@H]3O)[C@H]3COC(=O)[C@H]23)OCO4)cc(OC)c1O [ETOPOSIDE]	Unstable	–	–
Nc1ccc(C(=O)O)c(O)c1 [AMINOSALICYLIC ACID]	–	–	Stability [3]: Unstable
C[C@]12CC[C@@H]3c4ccc(O)cc4CC[C@H]3[C@@H]1C[C@@H](O)[C@@H]2O [ESTRIOL]	–	–	Stability [3]: Unstable
Cc1coc2c1CCC(C)C2 (stereo not drawn) [MENTHOFURAN]	–	–	IC50 shift at 0.5 h [5]: < 2
O=NN(CCCl)C(=O)NCCCl [CARMUSTINE]	–	–	Stability [3]: Unstable
CN(C)[C@@H]1C(O)=C(C(N)=O)C(=O)[C@@]2(O)C(O)=C3C(=O)c4c(O)cccc4[C@@](C)(O)[C@H]3C[C@@H]12 [TETRACYCLINE]	–	–	Stability [3]: Unstable
C=C[C@H]1C[N@@]2CC[C@H]1C[C@@H]2[C@@H](O)c1ccnc2ccc(OC)cc12 [QUINIDINE]	Unstable	–	–
Cc1cn([C@H]2C=C[C@@H](CO)O2)c(=O)[nH]c1=O [STAVUDINE]	–	–	Stability [3]: Unstable
COc1cc(NS(C)(=O)=O)ccc1Nc1c2ccccc2nc2ccccc12 [AMSACRINE]	Unstable	–	–
CO[C@@]12[C@H](COC(N)=O)C3=C(C(=O)C(C)=C(N)C3=O)N1C[C@@H]1N[C@@H]12 [MITOMYCIN]	Unstable	–	–
O=C1NC(=O)C(c2ccccc2)(c2ccccc2)N1 [PHENYTOIN]	–	Stable	–
CO[C@H](C(=O)[C@@H](O)[C@@H](C)O)[C@@H]1Cc2cc3cc(O[C@H]4C[C@@H](O[C@H]5C[C@@H](O)[C@H](O)[C@@H](C)O5)[C@H](O)[C@@H](C)O4)c(C)c(O)c3c(O)c2C(=O)[C@H]1O[C@H]1C[C@@H](O[C@H]2C[C@@H](O[C@H]3C[C@](C)(O)[C@H](O)[C@@H](C)O3)[C@@H](O)[C@@H](C)O2)[C@H](O)[C@@H](C)O1 [PLICAMYCIN]	–	Stable	–
COC(=O)C1=C(C)NC(C)=C(C(=O)OCC(C)C)C1c1ccccc1[N+](=O)[O-] (stereo not drawn) [NISOLDIPINE]	–	–	Stability [3]: Unstable
CC(=O)[C@H]1CC[C@H]2[C@@H]3CCC4=CC(=O)CC[C@]4(C)[C@H]3CC[C@]12C [PROGESTERONE]	–	Stable	–
COc1ccc2c(c1)c(CC(=O)O)c(C)n2C(=O)c1ccc(Cl)cc1 [INDOMETHACIN]	–	Stable	–
Nc1ccn([C@@H]2O[C@H](CO)[C@@H](O)[C@@H]2O)c(=O)n1 [CYTARABINE]	–	Stable	–
CNCCCC12CCC(c3ccccc31)c1ccccc12 [MAPROTILINE]	–	Stable	–
OC(Cn1cncn1)(Cn1cncn1)c1ccc(F)cc1F [FLUCONAZOLE]	–	Stable	–
CCNC(=O)[C@@H]1CCCN1C(=O)[C@H](CCCNC(=N)N)NC(=O)[C@H](CC(C)C)NC(=O)[C@@H](CC(C)C)NC(=O)[C@H](Cc1ccc(O)cc1)NC(=O)[C@H](CO)NC(=O)[C@H](Cc1c[nH]c2ccccc12)NC(=O)[C@H](Cc1c[nH]cn1)NC(=O)[C@@H]1CCC(=O)N1 [LEUPROLIDE]	–	Stable	–
NC(=O)OCC(COC(N)=O)c1ccccc1 [FELBAMATE]	–	Stable	–
Cc1ccccc1C(OCCN(C)C)c1ccccc1 (stereo not drawn) [ORPHENADRINE]	–	Stable	–

SMILES	Stability [1]	Stability [4]	further results
CN[C@@H](C)Cc1ccccc1 [METHAMPHETAMINE]	–	Stable	–
CC1COc2c(N3CCN(C)CC3)c(F)cc3c(=O)c(C(=O)O)cn1c23 (stereo not drawn) [OFLOXACIN]	–	Stable	–
Cc1c(C)c2c(c(C)c1O)CCC(C)(COc1ccc(CC3SC(=O)NC3=O)cc1)O2 (stereo not drawn) [TROGLITAZONE]	–	–	IC50 shift at 0.5 h [2]: 2; Stability [3]: Unstable
CC[C@H](C)C(=O)O[C@H]1C[C@@H](C)C=C2C=C[C@H](C)[C@H](CC[C@@H]3C[C@@H](O)CC(=O)O3)[C@H]21 [LOVASTATIN]	–	–	Stability [3]: Unstable
C[C@H]1[C@H](NC(=O)/C(=N\OC(C)(C)C(=O)O)c2csc(N)n2)C(=O)N1S(=O)(=O)O [AZTREONAM]	Unstable	–	–
CS(=O)(=O)OCCCCOS(C)(=O)=O [BUSULFAN]	Unstable	–	–
CCCCC1C(=O)N(c2ccccc2)N(c2ccccc2)C1=O [PHENYLBUTAZONE]	Unstable	–	–
CCN(CC)Cc1cc(Nc2ccnc3cc(Cl)ccc23)ccc1O.Cl	–	Unstable	–
CC(C)C[C@H](N)C(=O)O [LEUCINE]	–	Stable	–
C[C@](N)(Cc1ccc(O)cc1)C(=O)O [METYROSINE]	–	Stable	–
O=c1ccc2ccccc2o1 [COUMARIN]	–	–	Stability [3]: Unstable
CN(C)c1ccc(O)c2c1C[C@H]1C[C@H]3[C@H](N(C)C)C(O)=C(C(N)=O)C(=O)[C@@]3(O)C(O)=C1C2=O [MINOCYCLINE]	–	–	Stability [3]: Unstable
CO[C@H]1/C=C/O[C@@]2(C)Oc3c(C)c(O)c4c(O)c(c(/C=N/N5CCN(C)CC5)c(O)c4c3C2=O)NC(=O)/C(C)=C\C=C\[C@H](C)[C@H](O)[C@@H](C)[C@@H](O)[C@@H](C)[C@H](OC(C)=O)[C@@H]1C [RIFAMPIN]	Unstable	–	–
Cc1cc2c(s1)Nc1ccccc1N=C2N1CCN(C)CC1 [OLANZAPINE]	–	Stable	–
CC1(C)O[C@@H]2C[C@H]3[C@@H]4C[C@H](F)C5=CC(=O)C=C[C@]5(C)[C@H]4[C@@H](O)C[C@]3(C)[C@]2(C(=O)CO)O1 [FLUNISOLIDE]	Unstable	–	–
CCOC(=O)C(C)(C)Oc1ccc(Cl)cc1 [CLOFIBRATE]	–	Stable	–
C[C@@H](O)[C@H]1C(=O)N2C(C(=O)O)=C(S[C@@H]3CN[C@H](C(=O)N(C)C)C3)[C@H](C)[C@H]12 [MEROPENEM]	Unstable	–	–
CN1CC[C@]23c4c5ccc(O)c4O[C@H]2C(=O)CC[C@H]3[C@H]1C5 [HYDROMORPHONE]	–	Stable	–
Sc1ncnc2nc[nH]c12 [MERCAPTOPURINE ANHYDROUS]	Unstable	–	–
CN(C)C(=O)Oc1cccc([N+](C)(C)C)c1.[Br-] [NEOSTIGMINE BROMIDE]	–	Stable	–
